# Where two headings read alike, the source gives them in different places. Where a SMILES comes first, the peptide text is derived from it.
# Tests used:
# [1] = tested on: Galleria mellonella; test: In vivo toxicity in Galleria mellonella larvae; conditions: K13L 33.33 mg/kg into the haemocoel, 37 °C, monitored 9 days, Mantel–Cox log-rank test
# Protocol: The potential therapeutic activity of K13L was evaluated by the G. mellonella model of experimental candidiasis, according to a previously described procedure. To preliminarily evaluate in vivo toxicity, a solution of K13L (33.33 mg/kg) was inoculated directly into the haemocoel, via the last left pro-leg, in larvae at their final instar stage (body weight, 300 ± 20 mg, 10 μL/larva). Larvae inoculated with 10 μL of saline solution and untouched larvae served as controls. All animals were incubated at 37 °C in the dark and monitored daily for survival for 9 days. For the evaluation of therapeutic activity, larvae (16/group) were challenged with C. albicans SC5314 (5 × 10^5 yeast cells/larva, 10 μL) via the last left pro-leg. A solution of K13L (16.66 mg/kg,) or saline (control) was injected 60 min later, via the last right proleg (10 μL). Larvae were monitored daily for 9 days after infection. The log rank (Mantel–Cox) test was used to compare survival curves by Graph Pad Prism software.
# [2] = tested on: LLC-MK2 cells; type: cell-based, Rhesus monkey
# Protocol: (§1) The hemolytic and cytotoxic activity of the selected peptides (25, 50 and 100 μM) was evaluated as previously described. For the evaluation of hemolytic activity, peptides were added to human erythrocytes (blood group 0 Rh+, final concentration, 2.5% v/v) and hemoglobin release was estimated after 30 and 120 min incubation by measuring the absorbance of the supernatant at 540 nm. Erythrocytes suspended in phosphate buffered saline (PBS) and Triton 1% were the controls for zero (blank) and 100% hemolysis, respectively. Cytotoxicity against Rhesus monkey kidney epithelial cells (LLC-MK2 line) treated with peptides for 24 h was assessed after resazurin addition by measuring fluorescence intensity at 572 nm. Cells in medium without peptide served as control (100% viability). Each assay was carried out in duplicate and at least 2 independent replicates were performed for each experiment.
# (§2) Data are reported as the mean ± SD. Statistical significance was assessed by t test, p < 0.05 was considered significant.
# [3] = tested on: human erythrocytes; type: cell-based
# Protocol: as §1, §2
# [4] = tested on: C. albicans SC5314; test: Colony forming unit (CFU) candidacidal assay; type: cell-based, Candida albicans; conditions: 100 μg/mL vs reference strain C. albicans SC5314, CFU assay
# Protocol: The fungicidal activity of the selected peptides was evaluated in vitro by a previously described colony forming unit (CFU) assay. All peptides were preliminarily tested at the concentration of 100 μg/mL vs. the reference strain C. albicans SC5314. […] After incubation at 37 °C for 6 h in the presence or absence (control growth) of the peptides, fungal cell suspensions (approximately 500 cells/100 μL of distilled water) were spread on Sabouraud Dextrose agar plates. After incubation at 30 °C for 48–72 h, CFUs were enumerated. Each assay was carried out in triplicate and at least 2 independent experiments were performed for each condition. EC50 values were calculated by nonlinear regression analysis using Graph Pad Prism 4.01 software, San Diego, CA, USA. Time kinetics of K13L-mediated killing against the reference C. albicans strain was determined by CFU assays, as described above, after incubation of yeast cells for 30 min, 1, 2, 4 and 6 h with K13L at different concentrations.
SMILES,Survival of larvae vs saline-inoculated larvae (in vivo toxicity) [1],Cell Viability (%) ([2]; 25 µM),Cell Viability (%) ([2]; 50 µM),Cell Viability (%) ([2]; 100 µM),Hemolysis (%) ([3]; 25 µM),Hemolysis (%) ([3]; 50 µM),Fungicidal activity in preliminary assay [4]
CC(C)C[C@H](NC(=O)CNC(=O)[C@H](CC(C)C)NC(=O)[C@H](C)NC(=O)[C@H](C)NC(=O)[C@H](CCC(N)=O)NC(=O)[C@H](CO)NC(=O)[C@H](C)NC(=O)[C@H](C)NC(=O)[C@@H](NC(=O)[C@H](CC(C)C)NC(=O)[C@H](CCCCN)NC(=O)[C@@H](N)CCCCN)C(C)C)C(=O)O [Peptide K13L] (H-KKLVAASQAALGL-OH),No significant difference in survival,105.95 ± 1.47,105.04 ± 0.20,101.26 ± 0.38,–,–,–
C[C@H](NC(=O)[C@H](CCC(=O)O)NC(=O)[C@H](CO)NC(=O)CNC(=O)[C@H](C)NC(=O)[C@H](CCC(=O)O)NC(=O)[C@@H](N)CC(=O)O)C(=O)N[C@@H](CC(=O)O)C(=O)N[C@@H](Cc1c[nH]cn1)C(=O)N[C@@H](CCC(=O)O)C(=O)NCC(=O)N[C@H](C(=O)N[C@@H](Cc1c[nH]cn1)C(=O)N[C@@H](CO)C(=O)N[C@H](C(=O)O)[C@@H](C)O)[C@@H](C)O [Peptide D15T] (H-DEAGSEADHEGTHST-OH; N-terminus and C-terminus assumed),–,108.50 ± 0.92,107.55 ± 1.48,108.50 ± 5.15,0.00,0.00,no activity
CC(C)[C@H](NC(=O)[C@@H](NC(=O)[C@H](Cc1ccccc1)NC(=O)CNC(=O)[C@H](CCC(=O)O)NC(=O)[C@H](CC(N)=O)NC(=O)[C@H](CCC(=O)O)NC(=O)[C@H](CCCCN)NC(=O)[C@@H](NC(=O)[C@H](CCC(=O)O)NC(=O)[C@H](CCC(=O)O)NC(=O)[C@@H](N)CO)[C@@H](C)O)[C@@H](C)O)C(=O)N[C@H](C(=O)N[C@@H](C)C(=O)N[C@@H](CCC(=O)O)C(=O)NCC(=O)N[C@@H](CCCCN)C(=O)O)[C@@H](C)O [Peptide S17K] (H-SEETKENEGFTVTAEGK-OH; N-terminus and C-terminus assumed),–,103.47 ± 2.00,102.69 ± 1.37,101.73 ± 1.82,0.00,–,no activity
CC[C@H](C)[C@H](NC(=O)[C@H](CCCCN)NC(=O)[C@H](CO)NC(=O)CNC(=O)[C@H](CC(C)C)NC(=O)[C@H](CO)NC(=O)[C@H](Cc1ccccc1)NC(=O)[C@H](CCC(N)=O)NC(=O)[C@H](CC(C)C)NC(=O)[C@H](CCC(=O)O)NC(=O)[C@H](CCC(=O)O)NC(=O)[C@H](CCC(=O)O)NC(=O)[C@H](CC(C)C)NC(=O)CN)C(=O)N[C@@H](CC(N)=O)C(=O)N[C@H](C(=O)N[C@@H](CCCCN)C(=O)O)C(C)C [Peptide G17K] (H-GLEEELQFSLGSKINVK-OH),–,99.07 ± 1.57,99.73 ± 0.45,99.07 ± 1.57,0.00,–,–
CC(C)C[C@H](NC(=O)[C@H](Cc1ccccc1)NC(=O)[C@H](CC(=O)O)NC(=O)CNC(=O)[C@H](CCC(=O)O)NC(=O)CNC(=O)[C@H](CO)NC(=O)[C@@H](N)CC(=O)O)C(=O)N[C@@H](C)C(=O)N[C@@H](CCC(=O)O)C(=O)NCC(=O)NCC(=O)NCC(=O)N[C@H](C(=O)N[C@@H](CCCNC(=N)N)C(=O)O)C(C)C [Peptide D15R] (H-DSGEGDFLAEGGGVR-OH; N-terminus and C-terminus assumed),–,101.32 ± 1.92,101.25 ± 0.19,103.00 ± 1.49,–,–,no activity

# Source: PMC7588913, “A Peptide Found in Human Serum, Derived from the C-Terminus of Albumin, Shows Antifungal Activity In Vitro and In Vivo” (Microorganisms, 2020)
